Active and inactive are the calls of the source. The rule behind the calls is not given here.

This note sets out measurements from ChEMBL document CHEMBL1144154, “7-[1H-Indol-2-yl]-2,3-dihydro-isoindol-1-ones as dual Aurora-A/VEGF-R2 kinase inhibitors: design, synthesis, and biological activity” (Bioorg Med Chem Lett, 2008).

Data set [1] in a line: Drug concentration in nude mouse plasma at 10 mg/kg after 1 hr. It counts as ADME, organism-based. Also on record: dose 10 mg/kg.
The target in a further data set is T1, Aurora kinase A (Homo sapiens, UniProt O14965).
T1 sequence (O14965 whole entry): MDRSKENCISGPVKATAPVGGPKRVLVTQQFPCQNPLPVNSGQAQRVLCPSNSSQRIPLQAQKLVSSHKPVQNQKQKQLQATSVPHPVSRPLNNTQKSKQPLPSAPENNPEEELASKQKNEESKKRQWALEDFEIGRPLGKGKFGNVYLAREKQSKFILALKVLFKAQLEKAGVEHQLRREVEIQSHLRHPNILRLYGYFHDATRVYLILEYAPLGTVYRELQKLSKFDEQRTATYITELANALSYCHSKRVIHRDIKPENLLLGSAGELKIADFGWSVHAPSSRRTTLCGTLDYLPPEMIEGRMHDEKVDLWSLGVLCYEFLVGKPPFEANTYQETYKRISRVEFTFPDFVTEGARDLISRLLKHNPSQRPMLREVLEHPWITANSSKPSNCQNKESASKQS
In words: Inhibition of Aurora A.

The nature of data set [2]: Drug concentration in nude mouse plasma at 10 mg/kg after 2 hrs. Type of data set: ADME, organism-based. More on the design: dose 10 mg/kg.
Data set [3] can be described thus: Cmax in rat at 10 mg/kg, po. More on the design: dose 10 mg/kg, route oral. The conditions noted are these: in vivo. It counts as ADME, organism-based.
The target of data set [4] is T2, Vascular endothelial growth factor receptor 2 (Homo sapiens, UniProt P35968). In words: Inhibition of VEGFR2.
Data set [5] can be described thus: Drug concentration in nude mouse plasma at 10 mg/kg after 4 hrs. Also on record: dose 10 mg/kg. Type of data set: ADME, organism-based.
The target of data set [6] is T3, Cyclin-dependent kinase 1 (Homo sapiens, UniProt P06493). In words: Inhibition of CDK1.
Target sequence in this assay (P06493 whole entry): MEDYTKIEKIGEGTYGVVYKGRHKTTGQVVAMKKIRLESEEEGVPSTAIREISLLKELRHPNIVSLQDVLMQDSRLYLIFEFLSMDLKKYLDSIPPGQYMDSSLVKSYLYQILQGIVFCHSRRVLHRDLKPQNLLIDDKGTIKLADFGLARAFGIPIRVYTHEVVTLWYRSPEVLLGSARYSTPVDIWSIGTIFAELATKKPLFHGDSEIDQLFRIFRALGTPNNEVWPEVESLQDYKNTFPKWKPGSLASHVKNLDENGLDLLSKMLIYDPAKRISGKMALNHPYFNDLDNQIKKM
Data set [7] in a line: Half life in rat at 10 mg/kg, po. It counts as ADME, organism-based. More on the design: dose 10 mg/kg, route oral. As to conditions: in vivo.
The nature of data set [8]: Drug concentration in nude mouse plasma at 10 mg/kg after 0.5 hrs. It counts as ADME, organism-based. Also on record: dose 10 mg/kg.
The subject of another data set is A-375. As to the kind of experiment: Antitumor activity in human A375 cells […] nude mouse assessed as inhibition of tumor growth at 100 mg/kg, ip relative to control. It counts as functional. More on the design: scale not given: the % may be the effect or the level left. As to conditions: route intraperitoneal.
Data set [9] can be described thus: Oral bioavailability in rat at 10 mg/kg. Type of data set: ADME, organism-based. As to conditions: in vivo.
A further data set has as its system HeLa. In words: Induction of polyploidy in human HeLa cells assessed as increase in cells with >4N DNA content at 2.5 uM after 72 hrs by FACS analysis.
For data set [10], the target named is T2, Vascular endothelial growth factor receptor 2. In words: Inhibition of VEGFR2 at 100 uM.
Data set [11] concerns the target T3, Cyclin-dependent kinase 1. In words: Inhibition of CDK1 at 100 uM.
Target sequence in this assay (P06493 whole entry, looked up): as the sequence (P06493 whole entry) above
Data set [12] concerns the target T4, Aurora kinase A (Homo sapiens) (UniProt O14965).
T4 sequence (whole entry): T1 sequence (O14965 whole entry)
In words: Inhibition of Aurora A at 100 uM.

Data set [13] has as its target T2, Vascular endothelial growth factor receptor 2. In words: Inhibition of VEGFR2 at 0.1 uM.

T2 sequence (P35968 whole entry): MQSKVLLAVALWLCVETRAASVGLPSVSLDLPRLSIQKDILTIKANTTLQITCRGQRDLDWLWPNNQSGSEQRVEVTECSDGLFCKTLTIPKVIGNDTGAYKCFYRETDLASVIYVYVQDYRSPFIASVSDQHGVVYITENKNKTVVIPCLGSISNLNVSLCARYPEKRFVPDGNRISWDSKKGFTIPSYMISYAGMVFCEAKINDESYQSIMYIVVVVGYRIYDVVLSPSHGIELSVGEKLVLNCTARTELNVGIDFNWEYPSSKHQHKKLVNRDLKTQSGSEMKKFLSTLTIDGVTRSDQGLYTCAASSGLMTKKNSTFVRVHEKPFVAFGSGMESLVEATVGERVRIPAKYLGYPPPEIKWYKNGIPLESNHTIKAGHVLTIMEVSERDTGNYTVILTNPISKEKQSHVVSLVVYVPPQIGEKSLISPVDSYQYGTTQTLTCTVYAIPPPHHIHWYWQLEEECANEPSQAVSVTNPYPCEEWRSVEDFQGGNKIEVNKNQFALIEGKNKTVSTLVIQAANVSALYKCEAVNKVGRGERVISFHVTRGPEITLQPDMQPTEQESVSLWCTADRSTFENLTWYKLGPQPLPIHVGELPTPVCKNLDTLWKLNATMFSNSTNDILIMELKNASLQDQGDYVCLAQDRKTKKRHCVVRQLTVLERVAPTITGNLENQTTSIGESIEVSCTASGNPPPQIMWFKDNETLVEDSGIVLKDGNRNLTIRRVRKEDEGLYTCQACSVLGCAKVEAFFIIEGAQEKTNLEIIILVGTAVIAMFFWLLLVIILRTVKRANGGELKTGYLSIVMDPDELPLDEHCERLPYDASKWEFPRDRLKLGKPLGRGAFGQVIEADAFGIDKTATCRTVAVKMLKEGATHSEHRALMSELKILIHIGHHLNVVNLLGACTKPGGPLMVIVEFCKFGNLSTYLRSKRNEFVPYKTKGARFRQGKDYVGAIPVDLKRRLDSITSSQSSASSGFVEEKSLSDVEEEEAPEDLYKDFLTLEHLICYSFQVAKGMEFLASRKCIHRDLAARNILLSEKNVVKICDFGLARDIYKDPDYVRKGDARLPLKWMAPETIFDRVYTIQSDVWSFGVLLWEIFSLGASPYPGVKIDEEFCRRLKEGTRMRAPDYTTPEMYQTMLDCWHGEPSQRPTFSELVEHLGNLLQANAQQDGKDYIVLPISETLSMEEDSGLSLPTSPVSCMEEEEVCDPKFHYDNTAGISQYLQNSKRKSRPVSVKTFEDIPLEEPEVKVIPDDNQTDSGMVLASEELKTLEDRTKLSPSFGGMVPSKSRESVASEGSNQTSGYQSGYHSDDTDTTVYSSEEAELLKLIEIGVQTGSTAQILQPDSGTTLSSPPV

`O=C1NCc2cccc(-c3cc4cc(OCCN5CCCCC5)ccc4[nH]3)c21` had a concentration at 1 h in [1] of 160 ng/mL. The half-inhibitory concentration (IC50) (as a rule, the point on the concentration scale where inhibition reaches its midpoint) is 200 nM at Aurora kinase A, 56 nM in [4] and above 100000 nM in [6]. In data set [2], this compound yielded a concentration at 2 h of 41 ng/mL. Further, the peak concentration (Cmax) (in general, the highest concentration seen after dosing) in [3] came out at 391 ng/mL. For the same compound, the concentration at 4 h in [5] was 12 ng/mL. Also, the half-life (usually the time in which the quantity being followed falls by half) in data set [7] was 54 min. In [8], the concentration at 0.5 h was found to be 154 ng/mL. In addition, in the data set with A-375, the Activity is 46%. For the same compound, the bioavailability (as a rule, the share of a dose that reaches the circulation, judged against a reference dose that is usually intravenous) in data set [9] amounted to 20%. In addition, the outcome with HeLa was Active.
Regarding `CC(C)(C)OC(=O)n1cccc1-c1cccc2c1C(=O)NC2`, the values for the inhibition in data set [10], in data set [11] and in [12] were 46%, below 10% and 25%, respectively.
Consider `O=C1NCc2cccc(-c3cc4cc(OCCCO)ccc4[nH]3)c21`, for which the IC50 against Aurora kinase A was 100 nM; in [4], 30 nM; in data set [6], above 100000 nM.
Taken in the same sequence, the figures for `O=C1NCc2cccc(-c3cc4cc(O)ccc4[nH]3)c21` were 90 nM, 119 nM and 13300 nM.
With `O=C1NCc2cccc(-c3cc4cc(OCCN5CCOCC5)ccc4[nH]3)c21`, the IC50 against Aurora kinase A was 135 nM; in data set [4], 74 nM; in [6] it was above 100000 nM.
For the compound `CN1Cc2cccc(-c3cccn3C(=O)OC(C)(C)C)c2C1=O`, the IC50 (at Aurora kinase A; in data set [4]; in data set [6]) was above 100000 nM in each case.
As to `COc1ccc2[nH]c(-c3cccc4c3C(=O)NC4)nc2c1`, the values for the IC50 (against Aurora kinase A; in [4]) were 205 nM and 142 nM, respectively.
As for `O=C1NCc2cccc(-c3ccc[nH]3)c21`, the IC50 against Aurora kinase A was found to be 338 nM; in [4] it was 1100 nM. The inhibition – broadly, the relative decrease from the control value, in per cent – in [11] was 63%.
As to `CCN1CCN(CCCOc2ccc3[nH]c(-c4cccc5c4C(=O)NC5)cc3c2)CC1`, the IC50 against Aurora kinase A was 44 nM; in [4] it was 14 nM; in [6] it was above 100000 nM.
On to `COc1ccc2[nH]c(-c3cccc4c3C(=O)NC4=O)cc2c1`, for which the inhibition in data set [13] was 35%; in [12], 30%.
For `O=C1NCc2cccc(-c3cc4ccccc4[nH]3)c21`, the half-maximal inhibitory concentration (IC50) was 100 nM against Aurora kinase A, 144 nM in data set [4] and above 100000 nM in data set [6].
Consider `CN1Cc2cccc(-c3ccc[nH]3)c2C1=O`, for which the inhibition in data set [10] was below 10%; in [11], 24%; in data set [12], 37%.
Take `O=C1NCc2cccc(-c3cc4cc(OCCCN5CCCCC5)ccc4[nH]3)c21`: the figures for the IC50 (against Aurora kinase A; in data set [4]; in data set [6]) were 179 nM, 65 nM and above 100000 nM, respectively.
The like results for `O=C1NCc2cccc(-c3cc4cc(OCCCN5CCC(O)CC5)ccc4[nH]3)c21` were, in that order, 61 nM, 18 nM and above 100000 nM.
`O=C1NCc2cccc(-c3cc4cc(OCc5ccccc5)ccc4[nH]3)c21`: the IC50 at Aurora kinase A is 21200 nM; in [4], 11300 nM; in data set [6], above 100000 nM.
`COc1ccc(NC(=O)c2cccc3c2C(=O)NC3)cc1` registered an IC50 in [4] of 5940 nM. The same compound gave an inhibition in [12] of 45%.
Take `O=C1NCc2cccc(-c3c[nH]c4ccccc34)c21`: the inhibition in data set [10] came out at 50%; in data set [12], 60%.
As for `NC(=O)c1cccc2c1C(=O)NC2`, the figures for the IC50 (at Aurora kinase A; in [4]) were 14300 nM and above 100000 nM, respectively.
Taken in the same sequence, the figures for `O=C(O)c1cccc2c1C(=O)NC2` were above 100000 nM and above 100000 nM.
For the compound `COC(=O)c1cccc2c1C(=O)NC2`, the half-maximal inhibitory concentration (IC50) (against Aurora kinase A; in data set [4]) was above 100000 nM in each case.
